From patent US20080207714A1, “Diagnosis And Treatment Of Breast Cancer” (THE REGENTS OF THE UNIVERSITY OF MICHIGAN, priority 2006, published 2008)

Tests used:
Type in all cases: cell-based
Settings in all cases: reduction of AT-mediated invasion, losartan 2 uM
[1] = test system: BT549 breast cancer cells; assay: Matrigel cell invasion assay, BT549
578T breast cancer cells = assay: Matrigel cell invasion assay, 578T
[2] = test system: MCF-7 breast cancer cells; assay: Matrigel cell invasion assay, MCF7
[3] = test system: H16N2 immortalized benign breast epithelial cell line; assay: Matrigel cell invasion assay, H16N2
[4] = test system: DU145 prostate cancer cells; assay: Matrigel cell invasion assay, DU145

In the case of `CCCCc1nc(Cl)c(CO)n1Cc1ccc(-c2ccccc2-c2nn[nH]n2)cc1` [Lo, Losartan], the “Lo (2 uM) % Red.” value [1] was 72.4%, the “Lo (2 uM) % Red.” value ([1]; listed as losartan) was 72% and the “Lo (2 uM) % Red.” value (578T breast cancer cells) was 67.9%. The “Lo (2 uM) % Red.” value (578T breast cancer cells; listed as losartan) was 68%, the “Lo (2 uM) % Red.” value [2] was 56.7% and the “Lo (2 uM) % Red.” value [3] was 16.7%. The “Lo (2 uM) % Red.” value [4] was 35.0%.
